Read-outs that look alike come from different tables or passages of the source.
Key:
human SGLT2 = molecular target: T1, human SGLT2 (Homo sapiens, UniProt P31639); assay: Methyl-α-D-[U-14C]glucopyranoside uptake assay, SGLT2; type: cell-based; settings: HEK293.ETN cells stably expressing human SGLT2, sodium-dependent uptake, 1.5 h incubation
T1 construct: A full-length cDNA clone expressing human SGLT2
T1 sequence (P31639 1-672): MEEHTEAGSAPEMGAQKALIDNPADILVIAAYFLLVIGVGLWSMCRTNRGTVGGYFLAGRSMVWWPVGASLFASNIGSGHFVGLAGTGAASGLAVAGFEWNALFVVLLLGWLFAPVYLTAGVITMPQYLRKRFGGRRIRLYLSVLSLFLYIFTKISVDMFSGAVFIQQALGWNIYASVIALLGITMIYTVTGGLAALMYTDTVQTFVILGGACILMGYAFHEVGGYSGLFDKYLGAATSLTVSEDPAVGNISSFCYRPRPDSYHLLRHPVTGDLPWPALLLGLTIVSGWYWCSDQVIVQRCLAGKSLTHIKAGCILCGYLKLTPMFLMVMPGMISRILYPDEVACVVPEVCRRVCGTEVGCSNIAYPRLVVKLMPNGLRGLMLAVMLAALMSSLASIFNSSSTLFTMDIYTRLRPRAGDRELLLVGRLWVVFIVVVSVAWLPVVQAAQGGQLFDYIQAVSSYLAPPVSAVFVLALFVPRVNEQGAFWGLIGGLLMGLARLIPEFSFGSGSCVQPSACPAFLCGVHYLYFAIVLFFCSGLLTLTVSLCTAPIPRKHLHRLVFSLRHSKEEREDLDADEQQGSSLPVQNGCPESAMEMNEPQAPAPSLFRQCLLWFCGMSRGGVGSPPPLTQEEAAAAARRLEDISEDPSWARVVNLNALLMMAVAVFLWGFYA
Description: A full-length cDNA clone expressing human SGLT2 (GenScript Corporation) was subcloned into Hind III and Not I sites of pEAK15 expression vector. Clones harboring the cDNA inserts were identified by restriction analysis.
Plasmid containing human SGLT2 was linearized with Nsi I and purified by agarose gel electrophoresis. Using Lipofectamine 2000 Transfection Reagent (Invitrogen Corporation), DNA was transfected into HEK293.ETN cells and cultured in Dulbecco's Modified Eagle Medium (DMEM) containing 10% fetal bovine serum (FBS) at 37° C. under 5% CO2 for 24 h. Transfectants were selected in the same growth medium supplemented with puromycin (Invitrogen Corporation) for two weeks. Puromycin-resistant cells were recovered and seeded on a fresh 96-well plate (single cell per well) and cultured in the presence of puromycin until cells became confluent. Puromycin-resistant clones were evaluated for SGLT2 activity in the methyl-α-D-[U-^14C]glucopyranoside uptake assay described below.
(§1) Cells expressing SGLT1 or SGLT2 were seeded on 96-well ScintiPlate scintillating plates (PerkinElmer, Inc.) in DMEM containing 10% FBS (1×10^5 cells per well in 100 μl medium) incubated at 37° C. under 5% CO2 for 48 h prior to the assay. Cells were washed twice with 150 μl of either sodium buffer (137 mM NaCl, 5.4 mM KCl, 2.8 mM CaCl2, 1.2 mM MgCl2, 10 mM tris(hydroxymethyl)aminomethane/N-2-hydroxyethylpiperazine-N′-ethanesulfonic acid [Tris/Hepes], pH 7.2) or sodium-free buffer (137 mM N-methyl-glucamine, 5.4 mM KCl, 2.8 mM CaCl2, 1.2 mM MgCl2, 10 mM Tris/Hepes, pH 7.2). Test compound in 50 μl each of sodium or sodium-free buffer containing 40 μCi/ml methyl-α-D-[U-^14C]glucopyranoside (Amersham Biosciences/GE Healthcare) was added per well of a 96-well plate and incubated at 37° C. with shaking for either 2 h (SGLT1 assay) or 1.5 h (SGLT2 assay). Cells were washed twice with 150 μl of wash buffer (137 mM N-methylglucamine, 10 mM Tris/Hepes, pH 7.2) and methyl-α-D-[U-^14C]glucopyranoside uptake was quantitated using a TopCount scintillation counter (PerkinElmer, Inc.). Sodium-dependent glucopyranoside uptake was measured by subtracting the values obtained with sodium-free buffer from those obtained using sodium buffer (average of triplicate determinations).

human SGLT1 = molecular target: T2, human SGLT1 (Homo sapiens, UniProt P13866); assay: Methyl-α-D-[U-14C]glucopyranoside uptake assay, SGLT1; type: cell-based; settings: COS-7 cells transfected with human SGLT1; sodium-dependent uptake, 2 h incubation
T2 construct: Full-length human SGLT1 cDNA on pDream2.1 expression vector; host or cells: COS-7 cells
T2 sequence (P13866 1-664): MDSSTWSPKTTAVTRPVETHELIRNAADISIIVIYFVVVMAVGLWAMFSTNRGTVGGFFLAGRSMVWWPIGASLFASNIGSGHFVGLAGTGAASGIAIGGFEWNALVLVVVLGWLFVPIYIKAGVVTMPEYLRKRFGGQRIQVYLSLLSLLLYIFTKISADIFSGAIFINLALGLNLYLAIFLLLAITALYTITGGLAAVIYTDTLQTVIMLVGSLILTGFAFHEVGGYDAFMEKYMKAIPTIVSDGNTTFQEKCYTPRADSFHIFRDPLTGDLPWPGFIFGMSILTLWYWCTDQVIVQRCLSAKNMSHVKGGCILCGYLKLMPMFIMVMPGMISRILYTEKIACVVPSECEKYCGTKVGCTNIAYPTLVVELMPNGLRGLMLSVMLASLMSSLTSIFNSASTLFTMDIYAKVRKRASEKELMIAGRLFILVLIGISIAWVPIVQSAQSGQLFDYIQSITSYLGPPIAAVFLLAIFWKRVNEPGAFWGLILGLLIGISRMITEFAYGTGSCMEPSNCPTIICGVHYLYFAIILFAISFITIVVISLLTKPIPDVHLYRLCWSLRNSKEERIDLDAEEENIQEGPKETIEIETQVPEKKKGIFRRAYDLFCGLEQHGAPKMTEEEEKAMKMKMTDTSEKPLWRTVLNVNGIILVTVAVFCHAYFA
Method: Full-length human SGLT1 cDNA on pDream2.1 expression vector was obtained from GenScript Corporation and propagated in Escherichia coli strain DH5α using Luria-Bertani (LB) medium containing ampicillin. Plasmid DNA was isolated using the QIAGEN Plasmid Midi Kit (QIAGEN Inc.). […] Transfected cells were stored in DMEM containing 10% dimethyl sulfoxide (DMSO) at −80° C.
as §1

| SMILES | IC50 (human SGLT2; read-out: IC50 SGLT2) [nM] | IC50 (human SGLT1) [nM] | IC50 (human SGLT2; read-out: SGLT2 IC50) [nM] |
| --- | --- | --- | --- |
| CCc1ccc(Cc2cc3c(cc2Cl)CO[C@]32O[C@H](COC(C)=O)[C@@H](O)[C@H](O)[C@H]2O)cc1 [Compound AH, ((1S,3′R,4′S,5′S,6′R)-5-chloro-6-(4-ethylbenzyl)-3′,4′,5′-trihydroxy-3′,4′,5′,6′-tetrahydro-3H-spiro[isobenzofuran-1,2′-pyran]-6′-yl)methyl acetate] | < 1000 | 1000 to 10000 | – |
| CCc1ccc(Cc2cc3c(cc2Cl)CO[C@]32O[C@H](CNC(C)=O)[C@@H](O)[C@H](O)[C@H]2O)cc1 [Compound AM, N-(((1S,3′R,4′S,5′S,6′R)-5-chloro-6-(4-ethylbenzyl)-3′,4′,5′-trihydroxy-3′,4′,5′,6′-tetrahydro-3H-spiro[isobenzofuran-1,2′-pyran]-6′-yl)methyl)acetamide] | < 1000 | 1000 to 10000 | – |
| CCc1ccc(C(=O)c2cc3c(cc2Cl)CO[C@]32O[C@H](CO)[C@@H](O)[C@H](O)[C@H]2O)cc1 [Compound AQ, ((1S,3′R,4′S,5′S,6′R)-5-chloro-3′,4′,5′-trihydroxy-6′-(hydroxymethyl)-3′,4′,5′,6′-tetrahydro-3H-spiro[isobenzofuran-1,2′-pyran]-6-yl)(4-ethylphenyl)methanone] | < 1000 | > 10000 | – |
| CCc1ccc(Cc2cc3c(cc2Cl)C(OC)C[C@]32O[C@H](CO)[C@@H](O)[C@H](O)[C@H]2O)cc1 (stereo partly drawn) [Compound BD, (1S,3′R,4′S,5′S,6′R)-5-chloro-6-(4-ethylbenzyl)-6′-(hydroxymethyl)-3-methoxy-2,3,3′,4′,5′,6′-hexahydrospiro[indene-1,2′-pyran]-3′,4′,5′-triol] | < 1000 | > 10000 | – |
| CCc1ccc(Cc2cc3c(cc2Cl)C(CCO)C[C@]32O[C@H](CO)[C@@H](O)[C@H](O)[C@H]2O)cc1 (stereo partly drawn) [Compound BA, (1S,3′R,4′S,5′S,6′R)-5-chloro-6-(4-ethylbenzyl)-3-(2-hydroxyethyl)-6′-(hydroxymethyl)-2,3,3′,4′,5′,6′-hexahydrospiro[indene-1,2′-pyran]-3′,4′,5′-triol] | < 1000 | > 10000 | – |
| CCc1ccc(Cc2cc3c(cc2Cl)CC[C@]32O[C@H](CO)[C@@H](O)[C@H](O)[C@H]2O)cc1 [Compound AV, (1S,3′R,4′S,5′S,6′R)-5-chloro-6-(4-ethylbenzyl)-6′-(hydroxymethyl)-2,3,3′,4′,5′,6′-hexahydrospiro[indene-1,2′-pyran]-3′,4′,5′-triol] | < 1000 | 1000 to 10000 | – |
| CCc1ccc(Cc2cc3c(cc2Cl)C(O)C[C@]32O[C@H](CO)[C@@H](O)[C@H](O)[C@H]2O)cc1 (stereo partly drawn) [Compound BB, (1S,3′R,4′S,5′S,6′R)-5-chloro-6-(4-ethylbenzyl)-6′-(hydroxymethyl)-2,3,3′,4′,5′,6′-hexahydrospiro[indene-1,2′-pyran]-3,3′,4′,5′-tetraol] | < 1000 | > 10000 | – |
| CCc1ccc(Cc2cc3c(cc2Cl)CO[C@]32O[C@H](COC)[C@@H](O)[C@H](O)[C@H]2O)cc1 [Compound AG, (1S,3′R,4′S,5′S,6′R)-5-chloro-6-(4-ethylbenzyl)-6′-(methoxymethyl)-3′,4′,5′,6′-tetrahydro-3H-spiro[isobenzofuran-1,2′-pyran]-3′,4′,5′-triol] | < 1000 | 1000 to 10000 | – |
| CCc1ccc(Cc2cc3c(cc2Cl)CO[C@]32O[C@H](COCC(F)(F)F)[C@@H](O)[C@H](O)[C@H]2O)cc1 [Compound AI, (1S,3′R,4′S,5′S,6′R)-5-chloro-6-(4-ethylbenzyl)-6′-((2,2,2-trifluoroethoxy)methyl)-3′,4′,5′,6′-tetrahydro-3H-spiro[isobenzofuran-1,2′-pyran]-3′,4′,5′-triol] | < 1000 | > 10000 | – |

Now from value to molecule:

| IC50 (human SGLT2; read-out: IC50 SGLT2) [nM] | IC50 (human SGLT1) [nM] | IC50 (human SGLT2; read-out: SGLT2 IC50) [nM] | SMILES |
| --- | --- | --- | --- |
| < 1000 | < 1000 | – | CCc1ccc(Cc2cc3c(cc2Cl)CO[C@]32O[C@H](CO)[C@@H](O)[C@H](O)[C@H]2O)cc1 [Compound K, (1S,3′R,4′S,5′S,6′R)-5-chloro-6-(4-ethylbenzyl)-6′-(hydroxymethyl)-3′,4′,5′,6′-tetrahydro-3H-spiro[isobenzofuran-1,2′-pyran]-3′,4′,5′-triol] |
| < 1000 | > 10000 | 71 | CCOc1ccc(Cc2ccc3c(c2)[C@]2(OC3)O[C@H](CO)[C@@H](O)[C@H](O)[C@H]2O)cc1 [Compound G, (1S,3′R,4′S,5′S,6′R)-6-(4-ethoxybenzyl)-6′-(hydroxymethyl)-3′,4′,5′,6′-tetrahydro-3H-spiro[isobenzofuran-1,2′-pyran]-3′,4′,5′-triol] |
| < 1000 | > 10000 | – | OC[C@H]1O[C@]2(CCc3cc(Cl)c(Cc4ccc(O[C@H]5CCOC5)cc4)cc32)[C@H](O)[C@@H](O)[C@@H]1O [Compound BG, (1S,3′R,4′S,5′S,6′R)-5-chloro-6′-(hydroxymethyl)-6-(4-((S)-tetrahydrofuran-3-yloxy)benzyl)-2,3,3′,4′,5′,6′-hexahydrospiro[indene-1,2′-pyran]-3′,4′,5′-triol] |
| < 1000 | > 10000 | – | CCc1ccc(Cc2cc3c(cc2Cl)C(F)C[C@]32O[C@H](CO)[C@@H](O)[C@H](O)[C@H]2O)cc1 (stereo partly drawn) [Compound BE, (1S,3′R,4′S,5′S,6′R)-5-chloro-6-(4-ethylbenzyl)-3-fluoro-6′-(hydroxymethyl)-2,3,3′,4′,5′,6′-hexahydrospiro[indene-1,2′-pyran]-3′,4′,5′-triol] |
| < 1000 | 1000 to 10000 | 5.1 | CCOc1ccc(Cc2cc3c(cc2Cl)CO[C@]32O[C@H](CO)[C@@H](O)[C@H](O)[C@H]2O)cc1 [Compound H, (1S,3′R,4′S,5′S,6′R)-5-chloro-6-(4-ethoxybenzyl)-6′-(hydroxymethyl)-3′,4′,5′,6′-tetrahydro-3H-spiro[isobenzofuran-1,2′-pyran]-3′,4′,5′-triol] |
